Experimental findings from a melting point compilation (Tetko et al.; mined from patent text by program, amines drawn as free bases though some values may be those of a salt) are described below.

As a reminder, the melting point is the temperature of the solid-liquid transition. In turn, `O=c1ccn(-c2cccc(C(F)(F)F)c2)nc1-c1c[nH]nc1-c1ccccc1` registered a melting point of 206 to 208 °C. `CCOC(=O)C1(NC(C)=O)CC(C)(C)NC(C)(C)C1`: the melting point lay within 108 to 109 °C.

The compound `COC(=O)C1CSCC1=O` (stereo not given) came in with a melting point of 51 °C.

As for `CCCCn1cc(C2CCN(CCOc3ccccc3C(=O)O)CC2)c2ccncc21`, the melting point was 158 to 159 °C. To `CC(=O)OCc1cccc(-n2cccc2)c1Br` belongs 84 to 86.5 °C; to `CCOC(=O)c1cc(Cc2ccccc2)c(O)c2ccccc12`, 79 to 80 °C; to `CN1CCN(c2cc(Cl)cc3c2c(=O)n(Cc2cccc(O)c2)c(=O)n3Cc2ccccc2)CC1`, 234 to 236 °C. The compound `CCCCCCCCCCCCCCCCCCOc1ccc(N)cc1` gave a melting point of 95 to 97 °C. `CSc1sc(C(=O)N2CCN(C)CC2)c2c1C(=O)CC(C)(C)C2` displayed a melting point of 123 to 125 °C. To `COC(=O)C1Cc2cc(OC)ccc2N1` (racemic) belongs 59 to 61 °C; to `CCNc1c(C(=O)OCC)c(C)nc2c1nnn2CC`, 60 to 61 °C. As for `Cc1ccoc1C(=O)Nc1c(C)cc(N2CCCOCC2)nc1N1CC[C@@H](F)C1`, the melting point was in the range of 93 to 96 °C. To `CC(C)SC(=S)N1Cc2[nH]c3ccccc3c2CC1C(=O)O` (stereo not given) belongs 188 to 190 °C; to `CNc1nc(Cl)nc2c1ncn2C1CC(O)C(CO)O1` (stereo not given), 163 to 165 °C.

Take `O=S(=O)(CCO)Cc1ccc(CS(=O)(=O)CCO)cc1`: the melting point is 210 to 212 °C. Turning to `O=C(NC(Cc1ccc(OCc2ccc(Cl)cc2)cc1)C(=O)O)c1cn2ccc(-c3ccc(Cl)cc3)cc2n1` (stereo not given), the melting point was found to be 261 °C. In the case of `CC(=O)NNc1ccc(NCc2ccccc2)cc1`, the melting point was 118 to 120 °C. Compound `CC(=O)CS(=O)CCc1ccc2c(c1)OCO2` (stereo not given) yielded a melting point of 82 to 84.5 °C. Regarding `COc1ccc(Nc2nc(Nc3ccc(OC)c(F)c3)nc(OCC3CCCCC3)n2)cc1F`, the melting point was 181 °C. Regarding `CC(C)N(Cc1nc(-c2ccccc2)no1)C(=O)COc1ccc(C(=O)O)cc1`, the melting point fell in the range of 211 to 214 °C.

Compound `COc1cc(Nc2c(C#N)cnc3cc(-c4cccc(CN5CCOCC5)c4)sc23)c(Cl)cc1Cl` returned a melting point of 205 to 207 °C. To `Cc1cc(C)c(C(=O)c2c(C)cccc2C)c(OCC(O)CNC(C)C)c1` (stereo not given) belongs 102 to 104 °C; to `CC(C(=O)O)n1nnc2ccc(Oc3nn(C)c(C(F)(F)F)c3Cl)cc21` (stereo not given), 209 to 211 °C; to `CCCc1nn(C)c2c(-c3ccc(SC)cc3)nc(-c3ccc(F)cc3)nc12`, 114 to 116 °C. For `CC(=O)c1ccc(OCCCCNS(=O)(=O)c2ccc(Br)cc2)cc1`, the melting point lay within 129 to 130 °C. As to `CNS(=O)(=O)c1nc2ccc(O)cc2s1`, the melting point fell in the range of 189 to 190 °C. Under `O=C1CC=C(c2ccccc2Cl)c2cc(Cl)ccc2N1` stands 171 °C; under `Cc1cc2c(cc1-c1csc(C=O)c1)C(C)(C)CCC2(C)C`, 144 to 146 °C; under `Cn1cc2c(n1)-c1sccc1N(C(=O)c1ccc(NC(=O)C3CCCCC3)cc1)CC2`, 240 to 242 °C. Under `Cc1cc(C=C2CCCC(=Cc3cc(C)c(O)c(C)c3)C2=O)cc(C)c1O` stands 225 to 226 °C; under `CCN(N)c1cnn(-c2cccc(C(F)(F)F)c2)c(=O)c1`, 108 to 110 °C; under `ClCc1ccc(Oc2ccc3ccc(Oc4ccc(CCl)cc4)cc3c2)cc1`, 95 to 97 °C.

`CC#CN1CCN(C(=O)c2ccccc2)CC1` had a melting point of 94 to 95 °C. Compound `COCOc1c2c(cc3ccccc13)N(C(=O)OC(C)(C)C)CC2CCl` (stereo not given) displayed a melting point of 99 to 101 °C.

`COC(=O)NOCC(=O)OCOC(=O)Oc1c(Br)cc(C#N)cc1Br` had a melting point of 110 to 111 °C. To `O=c1[nH]c2cccc3c2n1CCC3` belongs 216 °C. To `CCOC(=O)c1nc(-c2ccc(Cl)cc2F)cc(N)c1OCC(F)(F)F` belongs 123 to 135 °C. With `CC(=O)N1CC(CCN2CCC(c3ccccc3)CC2)c2ccccc21` (stereo not given), the melting point was in the range of 92 to 93 °C. Under `FC(F)(F)c1ccc2[nH]nc(-c3ccccc3)c2c1` stands 152 °C; under `CSc1cc2c(cn1)c(=O)n(C)c1cc(C)nn21`, more than 300 °C; under `O=[N+]([O-])c1ccc2nnn(OS(=O)(=O)c3ccccc3)c2c1`, 122 to 124 °C.

Consider `Nc1ccccc1S(=O)(=O)c1cc(C(=O)O)ccc1Cl`, for which the melting point fell in the range of 235 to 238 °C.

`CCN1c2ccc(Cl)cc2C=C(C(=O)O)C1C(F)(F)F` (stereo not given): the melting point lay within 201 to 202 °C. Under `COC(=O)c1cccc(O)c1C` stands 74 to 75 °C.

As for `O=c1[nH]nc(-c2cccc(OCc3csc(-c4ccccc4F)n3)c2)o1`, the melting point is 198 to 202 °C. Under `CC(=O)Nc1ccc(-c2cc(C(C)(C)C)c(O)c(C(C)(C)C)c2)cc1` stands 173 to 174 °C. Compound `O=CNCS(=O)(=O)c1ccccc1` returned a melting point of 106 to 107 °C.

As to `FC(F)(F)c1cccc2c1SSSSS2`, the melting point was in the range of 55 to 60 °C. Compound `CS(=O)(=O)c1ccc(C(CC2CCCC2)C(=O)Nc2ccccn2)cc1C#N` (stereo not given) displayed a melting point of 87 to 90 °C. `O=[N+]([O-])c1cc(Cl)c(I)c(Cl)c1` registered a melting point of 147 to 150 °C. Under `Cc1ccc(S(=O)C(C(=O)OC(C)(C)C)C(O)c2ccc(Oc3ccccc3)cc2)cc1` (stereo not given) stands 126 to 128 °C. Under `CC(C)(C)NC(=O)C1CC(Cl)CN1C(=O)C(O)C(Cc1ccccc1)NC(=O)C(CC(N)=O)NC(=O)C(COC1CCCO1)NC(=O)OCc1ccccc1` (stereo not given) stands 64 to 71 °C. Turning to `O=Cc1cncn1-c1ccc(F)cc1`, the melting point was 131 to 133 °C. To `CCc1cccc(CNC(=O)c2nc3scc(COCc4ccc(C(=O)O)cc4)c3c(=O)[nH]2)c1` belongs 240 to 242 °C; to `CCNC(=O)c1ccc(-c2ccc3nnn(Cc4cc5cccnc5cc4F)c3n2)cc1Cl`, 197 to 199 °C.

`CC(=O)NCCc1ccc(NC(=O)C=C2CC(C(=O)O)Nc3cc(Cl)cc(Cl)c32)cc1` (racemic): the melting point lay in the range of 254 to 256 °C. As to `CCOC(=O)c1oc2cc(Br)ccc2c1C`, the melting point was 55 to 56 °C. Under `COCc1nc(C(C)(C)O)c(C(=O)O)n1Cc1ccc(-c2ccccc2-c2nnn[nH]2)cc1` stands 187 °C.

Compound `Cc1ccc(C(=O)NCc2cc(C(C)C)no2)cc1` yielded a melting point of 107 to 116 °C.

`CCCCOc1cc(C=C(C)C(=O)O)ccc1-c1cccc(CNCC(=O)c2ccccc2)c1` returned a melting point of 166 °C.

`CC1C(=O)NC(=O)N(Cc2ccccc2)C1=O` (stereo not given) yielded a melting point of 128 to 129 °C. The compound `COc1ccc(S(=O)(=O)C2(C(=O)NO)CCN(Cc3ccc(-c4ccccc4)cc3)CC2)cc1` gave a melting point of 168 °C. In turn, `CCOC(=O)N1CCN(c2ccc(-n3cn[nH]c3=O)cn2)CC1` gave a melting point of 221 °C. As for `CCOCC(COCC)Oc1ccc(/C=C/C(=O)O)c(Oc2ncc(C(F)(F)F)cc2Cl)c1`, the melting point lay in the range of 62 to 63 °C.

As for `CCCN(CCC)c1c(CC)nn2c(-c3cnc(N(C)C)cc3C)cccc12`, the melting point is 98.5 to 100 °C. `C=C(C)[C@@H]1CC(=O)[C@H](C)[C@H]1c1nc2c([nH]1)c(=O)n(CCC)c(=O)n2CCC` returned a melting point of 136 to 137 °C. Under `CN1C(C(=O)Nc2ccccn2)=C(OCOC(=O)c2ccccc2)c2ccccc2S1(=O)=O` stands 149 to 150 °C; under `O=[N+]([O-])c1sc(Oc2ccccc2)nc1Cl`, 96 °C; under `CC(C)NC(=O)OCC(=O)c1cccc(Br)c1`, 125 to 129 °C. Consider `COc1ccc(/C=C/C(=O)Nc2cc(OC)c(OC)cc2C(=O)O)cc1OC`, for which the melting point lay in the range of 236 to 239 °C.

Compound `CC1(C)Oc2ccc(C#N)cc2[C@@H](NC(=O)C2=C(c3ccccc3)CCC2)[C@@H]1O` showed a melting point of 156 to 158 °C. Under `CC(C)=CCN1[C@H](C)Cn2c(=S)[nH]c3cccc(c32)[C@@H]1C` (relative stereo) stands 138 °C; under `O=Cc1c2ccccc2cc2sccc12`, 113 °C; under `C[C@H]1[C@H](O)CN1c1c(F)cc2c(=O)c(C(=O)O)cn(C3CC3)c2c1F` (relative stereo), 215 to 218 °C. Under `CCCCC1CCC2NC(=O)C(=O)C2C1` (stereo not given) stands 112 to 113 °C. `CC1(C)SC(=S)N(Cc2cccs2)C(=O)C1NC(=O)c1ccc(Cl)cc1` (stereo not given): the melting point was in the range of 176 to 177 °C. `COc1ccc(-c2nc(C#N)c[nH]2)cc1` had a melting point of 219 to 220 °C. The compound `Cc1ccccc1Sc1cccc(C=O)c1O` returned a melting point of 42 to 43 °C.

Consider `CCC1CCn2c(nc(-c3ccncc3)cc2=O)N1` (stereo not given), for which the melting point was 244 to 246 °C. As for `CCCCc1nc2c(N)nc3ccccc3c2n1CCCCCS(C)=O` (stereo not given), the melting point fell in the range of 119 to 121 °C. To `Cc1oc(-c2ccccc2)nc1COc1ccc2cc(CC3SC(=O)NC3=O)oc2c1` (stereo not given) belongs 179 to 180 °C; to `CC1(C)C(=O)Nc2cc3[nH]c(-c4cnccn4)nc3cc21`, more than 300 °C; to `Cc1cccc(C)c1NC(=O)CCSc1cc(C(C)(C)C)c(O)c(C(C)(C)C)c1`, 142 to 144 °C. To `CCCCCCCCc1c(C)[nH]c(C)c(C#N)c1=O` belongs 205 to 206 °C. To `CCOC(=O)c1ccc2c(CC[N+](=O)[O-])c[nH]c2c1` belongs 124 to 127 °C; to `CCOc1ccc2c(c1)n(C1CCCCC1)c(=O)n2S(=O)(=O)c1ccc(N(C)C)cc1OC`, 220 °C. On to `O=C(O)c1ccc(-c2nnn[nH]2)cc1Sc1ccccc1`, for which the melting point lay within 239 to 240 °C. `CC(C)c1c(C(=O)c2cccc(C=CC#N)c2)[nH]c(=O)[nH]c1=O` showed a melting point of 210 to 211 °C. Consider `CC(=O)NCCOC(=O)C(Oc1cccc(C(F)(F)F)c1)c1ccc(Cl)cc1` (stereo not given), for which the melting point is 93 to 95 °C. Under `O=C(O)C1(c2ccccc2)CCN(CCC(c2ccccc2)(c2ccccc2)c2ccccn2)CC1` stands 270 to 275 °C.
